One test relates to MCF7. As to the kind of experiment: Cytotoxicity against human MCF7 cells. The class given is functional, cell-based.
For a further test, the system named is SK-MEL-5. As to the kind of experiment: Cytotoxicity against human SK-MEL-5 cells. The class given is functional, cell-based.
Another test concerns HCT-116. As to the kind of experiment: Cytotoxicity against human HCT116 cells. The class given is functional, cell-based.
Another test deals with CCRF-CEM. As to the kind of experiment: Cytotoxicity against human CCRF-CEM cells. The class given is functional, cell-based.
For another test, the system named is Escherichia coli. As to the kind of experiment: Antimicrobial activity against Escherichia coli. The class given is functional.
Another test deals with Staphylococcus aureus. As to the kind of experiment: Antimicrobial activity against Staphylococcus aureus. Type of test: functional.
The next test concerns Pseudomonas aeruginosa. In words: Antimicrobial activity against Pseudomonas aeruginosa. The class given is functional.

This passage reports IC50 and MIC results from ChEMBL document CHEMBL1149728, “11-oxoaerothionin: a cytotoxic antitumor bromotyrosine-derived alkaloid from the Caribbean marine sponge Aplysina lacunosa” (J Nat Prod, 1992).

SMILES strings stand for the structures. Values after ≈ are worked out from the molar mass of the structure shown.

In the case of `COC1=C(Br)[C@@H](O)[C@]2(C=C1Br)CC(C(=O)NCCC(=O)CNC(=O)C1=NO[C@]3(C=C(Br)C(OC)=C(Br)[C@@H]3O)C1)=NO2`, the IC50 turned out to be 20 µg/mL (≈ 24 µM) in the test with MCF7, 10 µg/mL (≈ 12 µM) in the test with SK-MEL-5, 10 µg/mL (≈ 12 µM) in the test with HCT-116 and 3.5 µg/mL (≈ 4.21 µM) in the test on CCRF-CEM. In addition, the MIC in the test with Escherichia coli stood at 10 µg/mL (≈ 12 µM); against Staphylococcus aureus, 30 µg/mL (≈ 36.1 µM); against Pseudomonas aeruginosa it was 30 µg/mL (≈ 36.1 µM).

What is called IC50 is the concentration at which inhibition is half-maximal. Broadly, the MIC is the lowest concentration that inhibits growth of the organism. Read a high MIC as a need for much substance.
